Where two headings read alike, the source gives them in different places.
Assays:
[1] = system: CCNK-luc reporter; test: CCNK-luc degradation assay; type: cell-based, Homo sapiens
Protocol: The ORF for CCNK was fused with the firefly luciferase (luc) sequence and inserted into the pCDNA3.1 vector. For setting up cells for co-transfection, 0.6 million 293 T cells were seeded per well in 6-well plates and allowed to attach to plates overnight. These cells were then transfected with 50 ng of pCDNA3.1-3xFLAG-CDK12 kinase domain, 50 ng of pCDNA3.1-CCNK-luc, and 400 ng of the empty pCDNA3.1 vector. Twenty-four hours later, transfected cells were dissociated by trypsin digestion and then plated in 96-well white plates. After overnight attachments, cells were then treated with HQ461 and its analog derivatives for 8 hr followed by measurements of luciferase activity with Bright-Glo luciferase assay system (Promega, Madison, USA). Half maximal CCNK-degradation concentrations (DC50) of HQ461 and its active analogs were interpolated by curve fitting with GraphPad Prism using baseline correction (by normalizing to DMSO control), the asymmetric (five parameter) equation, and least squares fit.

[2] = molecular target: T1, FLAG-Avi-DDB1 and His-CDK12KD/His-CCNKΔC (WT) (Homo sapiens, UniProt Q9NYV4); test: AlphaScreen assay, WT; type: binding; conditions: preincubated with 5 µM THZ531
T1 construct: Human CDK12KD (residues 715–1052); made in house; host or cells: Sf9 or High Five (CDK12KD/CCNKΔC, co-infected with yeast CAK1); 293F with BirA (FLAG-Avi-DDB1)
Protocol: Biotinylated FLAG-Avi-DDB1 (3 µM) and 6xHis-CDK12KD/6xHis-CCNKΔC (WT or G731E/R mutants) (3 µM) were mixed in an assay buffer (50 mM HEPES, pH7.5, 300 mM NaCl, 0.5 mM TCEP, 0.1% NP-40, 0.1% BSA) and a serial dilution of HQ461.The protein-compound mix was transferred to 384-well plates (Corning, Corning, USA); 15 μL per well. After a 1 hr room temperature incubation, 10 µL of nickel chelate (Ni-NTA) acceptor beads (PerkinElmer, Waltham, USA, Waltham, USA, 6760619C) (1:100 diluted with assay buffer) was added per well. After incubation in the dark for 1 hr at room temperature, 10 μL of streptavidin donor beads (PerkinElmer, Waltham, USA, 6760619C) (1:100 diluted in assay buffer) was added per well. After another 1 hr incubation, AlphaScreen signal was measured on the EnVision multimode plate reader (PerkinElmer, Waltham, USA). For THZ531 competition, FLAG-Avi-DDB1, 6xHis-CDK12KD/6xHis-CCNKΔC mix was preincubated with 5 μM of THZ531 for 30 min on ice followed by the procedures described above.

[3] = system: CCNK; test: Western blotting of CCNK protein level in A549 cells; type: cell-based, Homo sapiens; conditions: for CCNK degradation by compound alone: A549; for effect on HQ461-induced CCNK degradation: A549 treated with inhibitor prior to HQ461 treatment; for effect on HQ461-dependent CCNK degradation: A549 treated with HQ461 plus inhibitor
Protocol: Standard SDS-PAGE and western blotting procedures were used with the following modifications. For preparation of total lysates, cells were rinsed with DPBS to remove residual medium and then lysed in 20 mM HEPES-NaOH, pH 8.0, 10 mM NaCl, 2 mM MgCl2, 1% SDS freshly supplemented with 0.5 units/µL of benzonase and 1x cOmplete, Mini, EDTA-free protease inhibitor cocktail (Roche, Bazel, Switzerland). Protein concentrations of the resulting lysates were quantified by the BCA method. Between 30 to 60 µg of proteins were resolved on SDS-PAGE and transferred to nitrocellulose membranes with a pore size of 0.5 μm. Membranes were blocked in 5% nonfat milk PBST (0.1% v/v Tween-20) for 30 min before blotting with antibodies. The following primary antibodies were used by dilution in 5% nonfat milk PBST: anti-NRF2 (Abcam, Cambridge, UK, ab62352, 1:4,000), anti-β-Actin-HRP (Huaxingbio, Beijing, China, HX18271,1:10,000), anti-α-Tubulin-HRFP (MBL Life Science, Japan, PM054-7, 1:10,000), anti-DDB1 (Abcam, Cambridge, UK, ab109027, 1:10,000), anti-RBX1 (Proteintech, Wuhan, China, 14895–1-AP, 1:5,000), anti-UBE2G1 (Proteintech, Wuhuan, China, 12012–1-AP, 1:2,000), anti-CDK12 (Cell Signaling Technology, Danvers, USA, 11973S,1:4,000), anti-CCNK (Bethyl lab, Montgomery, USA, A301-939A-T,1:4,000), anti-FLAG-HRP (Sigma-Aldrich, MO, USA, A8592, 1:10,000), anti-HA (BioLegend, San Diego, USA, 901533, 1:4,000), anti-RNA polymerase II subunit B1 (phospho CTD Ser-2) clone 3E10 (Sigma-Aldrich, MO, USA, 04–1571, 1:5,000), and anti-RNA polymerase II CTD repeat YSPTSPS antibody clone 8WG16 (Abcam, Cambridge, UK, ab817, 1:5,000). The following HRP-linked secondary antibodies were used by dilution in PBST: anti-rabbit IgG (Cell Signaling Technology, Danvers, USA, 7074S, 1:10,000), anti-mouse IgG (Zsbio, Beijing, China, ZB-2305, 1:10,000), and anti-rat IgG, (Sino Biological, Beijing, China, SSA005, 1:10,000). M5 HiPer ECL Western HRP Substrate (Mei5bio, Beijing, China, MF074-01) was used for the detection of HRP enzymatic activity. Western blot images were taken with a VILBER FUSION FX7 imager.

[4] = molecular target: T2, DDB1ΔBPB (DDB1 without its BPB domain) (human, UniProt Q16531-1 1-1140, removing residues 400–704); test: differential scanning fluorimetry; 5 µM DDB1ΔBPB with 10 µM HBx peptide; SYPRO Orange; 50 mM HEPES pH 7.5, 300 mM NaCl, 0.5 mM TCEP; 10°C to 95°C; conditions: both partners purified
T2 construct: also called Strep-8×His-DDB1ΔBPB

[5] = 293T, 8 hr, read-out: DC50 (half maximal CCNK-degradation concentration)

T2 sequence (Q16531 other isoform, or with tags, fused parts or gaps with the stated changes): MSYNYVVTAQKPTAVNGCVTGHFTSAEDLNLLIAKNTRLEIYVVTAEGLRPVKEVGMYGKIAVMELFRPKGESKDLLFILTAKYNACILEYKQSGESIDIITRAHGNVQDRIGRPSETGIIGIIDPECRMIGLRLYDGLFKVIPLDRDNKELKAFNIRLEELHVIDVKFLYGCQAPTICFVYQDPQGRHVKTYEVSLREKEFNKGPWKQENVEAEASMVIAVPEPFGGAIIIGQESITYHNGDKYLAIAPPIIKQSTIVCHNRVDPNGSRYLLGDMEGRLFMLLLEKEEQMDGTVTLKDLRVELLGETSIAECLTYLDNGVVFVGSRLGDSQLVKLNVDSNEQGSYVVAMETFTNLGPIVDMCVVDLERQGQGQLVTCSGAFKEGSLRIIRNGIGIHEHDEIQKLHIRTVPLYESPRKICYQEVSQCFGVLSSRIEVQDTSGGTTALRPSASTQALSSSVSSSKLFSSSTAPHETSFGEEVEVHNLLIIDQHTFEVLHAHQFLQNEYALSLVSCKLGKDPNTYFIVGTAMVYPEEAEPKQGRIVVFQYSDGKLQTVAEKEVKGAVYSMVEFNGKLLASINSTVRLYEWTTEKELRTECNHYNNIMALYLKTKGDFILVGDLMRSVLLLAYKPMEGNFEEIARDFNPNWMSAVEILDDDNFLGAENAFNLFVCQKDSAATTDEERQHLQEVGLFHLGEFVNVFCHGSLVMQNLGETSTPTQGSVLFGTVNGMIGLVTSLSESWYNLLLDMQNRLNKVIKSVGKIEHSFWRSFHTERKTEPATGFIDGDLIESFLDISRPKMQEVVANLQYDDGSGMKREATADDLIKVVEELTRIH
T1 sequence (Q9NYV4 715-1052 limits assumed, stated change not applied): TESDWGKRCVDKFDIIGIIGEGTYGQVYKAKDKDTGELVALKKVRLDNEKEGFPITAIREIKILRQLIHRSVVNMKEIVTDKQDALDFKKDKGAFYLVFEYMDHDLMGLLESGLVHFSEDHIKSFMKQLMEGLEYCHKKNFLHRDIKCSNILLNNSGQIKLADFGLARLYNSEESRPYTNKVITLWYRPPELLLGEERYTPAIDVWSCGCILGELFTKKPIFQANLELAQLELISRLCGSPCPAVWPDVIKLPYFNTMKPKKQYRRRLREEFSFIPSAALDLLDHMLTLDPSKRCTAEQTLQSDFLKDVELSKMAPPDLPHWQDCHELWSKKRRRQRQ
T1 sequence (O75909 11-267 partner limits assumed): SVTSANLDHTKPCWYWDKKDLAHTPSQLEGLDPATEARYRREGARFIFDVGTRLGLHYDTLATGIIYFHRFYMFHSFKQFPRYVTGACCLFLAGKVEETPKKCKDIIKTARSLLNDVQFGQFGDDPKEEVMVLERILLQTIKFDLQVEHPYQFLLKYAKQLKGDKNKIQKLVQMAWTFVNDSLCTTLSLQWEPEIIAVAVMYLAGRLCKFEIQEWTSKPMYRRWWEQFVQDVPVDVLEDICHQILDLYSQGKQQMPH
T1 sequence (Q16531 whole entry partner, the tested form may be a part): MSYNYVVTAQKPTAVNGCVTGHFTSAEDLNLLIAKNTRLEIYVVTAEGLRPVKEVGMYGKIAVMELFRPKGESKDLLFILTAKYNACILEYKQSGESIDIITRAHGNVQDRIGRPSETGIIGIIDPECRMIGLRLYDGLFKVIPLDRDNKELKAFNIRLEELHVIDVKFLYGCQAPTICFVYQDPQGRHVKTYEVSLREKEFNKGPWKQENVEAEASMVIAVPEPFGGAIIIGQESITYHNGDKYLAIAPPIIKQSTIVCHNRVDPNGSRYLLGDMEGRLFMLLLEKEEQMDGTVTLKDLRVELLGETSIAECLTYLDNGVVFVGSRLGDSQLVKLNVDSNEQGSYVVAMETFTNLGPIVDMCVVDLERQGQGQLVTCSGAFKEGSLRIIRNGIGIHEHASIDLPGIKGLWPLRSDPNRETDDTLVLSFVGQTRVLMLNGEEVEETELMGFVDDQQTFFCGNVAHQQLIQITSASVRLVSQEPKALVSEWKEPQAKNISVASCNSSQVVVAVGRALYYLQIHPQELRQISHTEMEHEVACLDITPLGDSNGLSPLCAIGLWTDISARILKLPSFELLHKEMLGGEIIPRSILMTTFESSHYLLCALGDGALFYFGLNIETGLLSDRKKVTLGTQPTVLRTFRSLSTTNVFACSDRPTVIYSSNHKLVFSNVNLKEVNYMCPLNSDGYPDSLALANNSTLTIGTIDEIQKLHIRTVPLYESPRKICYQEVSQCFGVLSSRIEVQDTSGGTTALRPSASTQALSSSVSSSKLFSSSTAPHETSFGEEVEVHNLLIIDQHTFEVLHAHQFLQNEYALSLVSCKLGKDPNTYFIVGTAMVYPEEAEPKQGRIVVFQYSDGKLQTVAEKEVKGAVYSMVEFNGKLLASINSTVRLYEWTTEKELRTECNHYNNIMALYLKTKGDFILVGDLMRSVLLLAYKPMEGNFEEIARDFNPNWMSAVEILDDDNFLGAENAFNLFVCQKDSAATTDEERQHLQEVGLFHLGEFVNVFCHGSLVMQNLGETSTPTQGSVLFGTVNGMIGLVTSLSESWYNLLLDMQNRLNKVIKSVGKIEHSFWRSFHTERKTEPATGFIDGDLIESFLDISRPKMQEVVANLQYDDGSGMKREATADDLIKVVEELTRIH

Molecule: Cc1cnc(NC(=O)Cc2csc(Nc3ccccn3)n2)s1 [HQ010, N-(5-methylthiazol-2-yl)−2-(2-(pyridin-2-ylamino)thiazol-4-yl)acetamide]
- fold increase in DC50 relative to HQ461 [1]: 6 fold
- DC50 [1, 5]: 811 nM

Molecule: O=C(Cc1csc(Nc2ccccn2)n1)NCc1nc2ccccc2[nH]1 [HQ020]
- Dmax (10 μM), percentage of CCNK degradation relative to DMSO control ([1]; 8 hr): 15.5%

Molecule: Cc1cnc(NC(=O)Cc2csc(Nc3cccc(N)n3)n2)s1 [HQ007, 2-(2-((6-aminopyridin-2-yl)amino)thiazol-4-yl)-N-(5-methylthiazol-2-yl)acetamide]
- DC50 [1, 5]: 561 nM

Molecule: Cc1cccc(Nc2nc(CC(N)=O)cs2)n1 [HQ017]
- Dmax (10 μM), percentage of CCNK degradation relative to DMSO control ([1]; 8 hr): 4.2%

Molecule: Cc1cnc(NC(=O)Cc2csc(NC(=O)c3cccc(Br)n3)n2)s1 [HQ014, 6-bromo-N-(4-(2-((5-methylthiazol-2-yl)amino)−2-oxoethyl)thiazol-2-yl) Picolinamide]
- CCNK degradation activity relative to HQ461 [1]: losses in activity
- Dmax (10 μM), percentage of CCNK degradation relative to DMSO control ([1]; 8 hr): 9.9%

Molecule: Cc1cnc(NC(=O)Cc2csc(Nc3cccc(F)n3)n2)s1 [HQ001, 2-(2-((6-fluoropyridin-2-yl)amino)thiazol-4-yl)-N-(5-methylthiazol-2-yl)acetamide]
- DC50 [1, 5]: 300 nM

Molecule: CN(C)C/C=C/C(=O)Nc1ccc(C(=O)N2CCC[C@@H](Nc3ncc(Cl)c(-c4c[nH]c5ccccc45)n3)C2)cc1 [THZ531]
- effect on HQ461-dependent formation of the CDK12KD/CCNKΔC/DDB1 complex [2]: inhibited HQ461-dependent formation of the CDK12KD/CCNKΔC/DDB1 complex
- CCNK degradation by compound alone [3]: Neither THZ531 nor dinaciclib treatment caused CCNK degradation
- effect on HQ461-induced CCNK degradation [3]: prevented CCNK degradation

Molecule: Cc1ccnc(Nc2nc(CC(=O)Nc3nc4c(s3)CCCC4)cs2)c1 [HQ018]
- Dmax (10 μM), percentage of CCNK degradation relative to DMSO control ([1]; 8 hr): 18.8%

Molecule: CCc1cccc(Nc2nc(CC(=O)Nc3ncc(C)s3)cs2)n1 [HQ004, 2-(2-((6-ethylpyridin-2-yl)amino)thiazol-4-yl)-N-(5-methylthiazol-2-yl)acetamide]
- DC50 [1, 5]: 542 nM

Molecule: Cc1cnc(NC(=O)Cc2csc(N)n2)s1 [HQ011, 2-(2-aminothiazol-4-yl)-N-(5-methylthiazol-2-yl)acetamide]
- CCNK degradation activity relative to HQ461 [1]: losses in activity

Molecule: COc1cccc(Nc2nc(CC(=O)Nc3ncc(C)s3)cs2)n1 [HQ006, 2-(2-((6-methoxypyridin-2-yl)amino)thiazol-4-yl)-N-(5-methylthiazol-2-yl)acetamide]
- DC50 [1, 5]: 466 nM

Molecule: NC(=O)CNC(=O)Cc1csc(Nc2ccccn2)n1 [HQ022]
- Dmax (10 μM), percentage of CCNK degradation relative to DMSO control ([1]; 8 hr): 25.7%

Molecule: NC(=O)c1ccccc1NC(=O)Cc1csc(Nc2ccccn2)n1 [HQ021]
- Dmax (10 μM), percentage of CCNK degradation relative to DMSO control ([1]; 8 hr): 7.8%

Molecule: Cc1cnc(NC(=O)Cc2csc(Nc3cccc(CO)n3)n2)s1 [HQ005, 2-(2-((6-(hydroxymethyl)pyridin-2-yl)amino)thiazol-4-yl)-N-(5-methylthiazol-2-yl)acetamide]
- fold increase in potency relative to HQ461 [1]: 3 fold
- Dmax (10 μM), percentage of CCNK degradation relative to DMSO control ([1]; 8 hr): 86.5%
- DC50 ([1]; read-out: DC50): 41 nM

Molecule: Cc1cccc(Nc2nc(CC(=O)NC(C)c3ccccc3)cs2)n1 (centres unmarked) [HQ015]
- Dmax (10 μM), percentage of CCNK degradation relative to DMSO control ([1]; 8 hr): 8.6%

Molecule: Cc1cnc(NC(=O)Cc2csc(Nc3cccc(Cl)n3)n2)s1 [HQ002, 2-(2-((6-chloropyridin-2-yl)amino)thiazol-4-yl)-N-(5-methylthiazol-2-yl)acetamide]
- DC50 [1, 5]: 471 nM

Molecule: Cc1cnc(NC(=O)Cc2csc(Nc3cccc(Br)n3)n2)s1 [HQ003, 2-(2-((6-bromopyridin-2-yl)amino)thiazol-4-yl)-N-(5-methylthiazol-2-yl)acetamide]
- DC50 [1, 5]: 407 nM

Molecule: Cc1cnc(NC(=O)Cc2csc(Nc3cccc(C(F)(F)F)n3)n2)s1 [HQ009, N-(5-methylthiazol-2-yl)−2-(2-((6-(trifluoromethyl)pyridin-2-yl)amino)thiazol-4-yl)acetamide]
- DC50 [1, 5]: 2360 nM

Molecule: NS(=O)(=O)OC[C@@H]1C[C@@H](n2ccc3c(N[C@H]4CCc5ccccc54)ncnc32)C[C@@H]1O [MLN4924]
- effect on HQ461-dependent CCNK degradation [3]: abrogated HQ461-dependent CCNK degradation

Molecule: CC(C)C[C@H](NC(=O)[C@H](Cc1ccccc1)NC(=O)c1cnccn1)B(O)O [bortezomib]
- effect on HQ461-dependent CCNK degradation [3]: abrogated HQ461-dependent CCNK degradation

Molecule: CCc1ccccc1NC(=O)Cc1csc(Nc2ccccn2)n1 [HQ023]
- Dmax (10 μM), percentage of CCNK degradation relative to DMSO control ([1]; 8 hr): 3.0%

Molecule: Cc1cnc(NC(=O)Cc2csc(Nc3cccc(-n4cccn4)n3)n2)s1 [HQ008, 2-(2-((6-(1H-pyrazol-1-yl)pyridin-2-yl)amino)thiazol-4-yl)-N-(5-methylthiazol-2-yl)acetamide]
- fold increase in DC50 relative to HQ461 [1]: 38 fold
- DC50 [1, 5]: 5030 nM

Molecule: CC(=O)Nc1nc(CC(=O)Nc2ncc(C)s2)cs1 [HQ019]
- CCNK degradation activity relative to HQ461 [1]: losses in activity
- Dmax (10 μM), percentage of CCNK degradation relative to DMSO control ([1]; 8 hr): 62.0%

Molecule: CCc1cnn2c(NCc3ccc[n+]([O-])c3)cc(N3CCCC[C@H]3CCO)nc12 [dinaciclib]
- CCNK degradation by compound alone [3]: Neither THZ531 nor dinaciclib treatment caused CCNK degradation
- effect on HQ461-induced CCNK degradation [3]: prevented CCNK degradation

Molecule: Nc1nc(CC(=O)Nc2nc(-c3ccco3)cs2)cs1 [HQ013, 2-(2-aminothiazol-4-yl)-N-(4-(furan-2-yl)thiazol-2-yl)acetamide]
- Dmax (10 μM), percentage of CCNK degradation relative to DMSO control ([1]; 8 hr): 8.6%

B1: HBx peptide (α-helical motif of the hepatitis B virus X protein) (peptide)
peptide: ILPKVLHKRTLGLS
notes: peptide corresponding to the α-helical motif of hepatitis B virus X protein (HBx); also called HBx peptides; source: synthetic peptide (ChinaPetides, purity 96%)
- increase in Tm [4]: 2 °C

— publication PMC7462607 (eLife, 2020)
